Laboratory results taken from patent publication US20250163038A1, “CBL-B MODULATORS AND USES THEREOF” (Nimbus Clio, Inc., priority 2021, published 2025).

How the values were obtained:
[1] = biological target: Recombinant human Cbl-b (aa 36-427) (Homo sapiens, UniProt Q13191); assay: Cbl-b Biochemical Assay (TR-FRET); details: read-out: TR-FRET hCbl-b IC50
[2] = system: Jurkat (clone E6-1) cells with NFAT luciferase reporter; assay: Jurkat reporter assay (NFAT Luciferase); type: cell-based; details: Homo sapiens; Jurkat NFAT luciferase reporter cells, anti-CD3 stimulation, 6 hr; read-out: Jurkat NFAT EC50
[3] = biological target: T1, Recombinant human c-Cbl (aa 47-435) (Homo sapiens, UniProt P22681); assay: c-Cbl Biochemical Assay (TR-FRET); details: hc-Cbl Biochemical Assay (TR-FRET); read-out: TR-FRET hcCbl IC50
T1 sequence (P22681 47-435): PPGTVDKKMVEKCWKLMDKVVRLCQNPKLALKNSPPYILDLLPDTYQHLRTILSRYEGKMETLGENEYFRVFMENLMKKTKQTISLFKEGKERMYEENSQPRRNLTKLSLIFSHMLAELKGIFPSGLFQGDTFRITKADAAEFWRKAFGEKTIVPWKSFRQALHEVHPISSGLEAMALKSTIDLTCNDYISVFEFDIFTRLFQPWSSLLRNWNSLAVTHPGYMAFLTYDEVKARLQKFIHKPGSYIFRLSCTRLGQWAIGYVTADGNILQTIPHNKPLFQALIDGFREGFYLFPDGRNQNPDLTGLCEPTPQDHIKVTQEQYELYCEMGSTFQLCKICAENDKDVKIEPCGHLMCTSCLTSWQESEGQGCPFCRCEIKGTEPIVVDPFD

Recombinant human Cbl-b (aa 36-427), sequence (Q13191 36-427): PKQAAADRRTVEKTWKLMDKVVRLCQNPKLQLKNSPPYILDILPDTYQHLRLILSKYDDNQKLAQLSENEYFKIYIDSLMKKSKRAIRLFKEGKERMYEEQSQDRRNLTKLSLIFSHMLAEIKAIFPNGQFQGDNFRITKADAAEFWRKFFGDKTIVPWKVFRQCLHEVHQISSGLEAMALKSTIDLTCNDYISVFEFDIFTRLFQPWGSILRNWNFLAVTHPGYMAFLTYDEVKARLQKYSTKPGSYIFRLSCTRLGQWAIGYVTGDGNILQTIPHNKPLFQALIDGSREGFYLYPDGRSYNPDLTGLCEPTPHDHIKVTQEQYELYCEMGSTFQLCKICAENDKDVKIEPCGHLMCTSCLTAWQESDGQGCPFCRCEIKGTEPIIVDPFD

Row | Compound | IC50 [1] | EC50 [2] | IC50 [3]
1 | Cn1cnnc1-c1cc(F)ccc1-c1cccc(-c2nc3cc(CNCC4(O)CCC4)cc(C(F)(F)F)c3o2)c1 [Example Y-3, 1-((((2-(4′-Fluoro-2′-(4-methyl-4H-1,2,4-triazol-3-yl)-[1,1′-biphenyl]-3-yl)-7-(trifluoromethyl)benzo[d]oxazol-5-yl)methyl)amino)methyl)cyclobutan-1-ol] | < 0.2 µM | 0.2 to 1 µM | 1 to 10 µM
2 | Cn1cnnc1-c1cc(F)ccc1-c1cccc(-c2nc3cc(CNC4(CO)COC4)cc(C(F)(F)F)c3o2)c1 [Example Z-2, (3-(((2-(4′-Fluoro-2′-(4-methyl-4H-1,2,4-triazol-3-yl)-[1,1′-biphenyl]-3-yl)-7-(trifluoromethyl)benzo[d]oxazol-5-yl)methyl)amino)oxetan-3-yl)methanol] | < 0.2 µM | 1 to 10 µM | 1 to 10 µM
3 | COc1cc(CNCC2CCC2)cc2nc(-c3cccc(-c4ccc(F)cc4-c4nncn4C)c3)oc12 [FA-1, 1-Cyclobutyl-N-((2-(4′-fluoro-2′-(4-methyl-4H-1,2,4-triazol-3-yl)-[1,1′-biphenyl]-3-yl)-7-methoxybenzo[d]oxazol-5-yl)methyl)methanamine] | < 0.2 µM | < 0.2 µM | < 0.2 µM
4 | Cn1cnnc1-c1cc(F)ccc1-c1cccc(-c2nc3cc(CNCC4CC4)cc(C(F)(F)F)c3o2)c1 [FB-2, 1-Cyclopropyl-N-((2-(4′-fluoro-2′-(4-methyl-4H-1,2,4-triazol-3-yl)-[1,1′-biphenyl]-3-yl)-7-(trifluoromethyl)benzo[d]oxazol-5-yl)methyl)methanamine] | < 0.2 µM | < 0.2 µM | < 0.2 µM
5 | COCC1(CNCc2cc(C(F)(F)F)c3oc(-c4cccc(-c5ccc(F)cc5-c5nncn5C)c4)nc3c2)CCCC1 [FC-2, 1-(2-(4′-Fluoro-2′-(4-methyl-4H-1,2,4-triazol-3-yl)-[1,1′-biphenyl]-3-yl)-7-(trifluoromethyl)benzo[d]oxazol-5-yl)-N-((1-(methoxymethyl)cyclopentyl)methyl)methanamine] | < 0.2 µM | 0.2 to 1 µM | < 0.2 µM
6 | Cn1cnnc1-c1cc(F)ccc1-c1cccc(-c2nc3cc(CNCCF)cc(C(F)(F)F)c3o2)c1 [FD-2, 2-fluoro-N-((2-(4′-fluoro-2′-(4-methyl-4H-1,2,4-triazol-3-yl)-[1,1′-biphenyl]-3-yl)-7-(trifluoromethyl)benzo[d]oxazol-5-yl)methyl)ethan-1-amine] | < 0.2 µM | 0.2 to 1 µM | < 0.2 µM
7 | Cc1cc(CO)cc2nc(-c3cccc(-c4ccc(F)cc4-c4nncn4C)c3)oc12 [FE-3, (2-(4′-Fluoro-2′-(4-methyl-4H-1,2,4-triazol-3-yl)-[1,1′-biphenyl]-3-yl)-7-methylbenzo[d]oxazol-5-yl)methanol] | 1 to 10 µM | 10 to 50 µM | 1 to 10 µM
8 | Cn1cnnc1-c1cc(F)ccc1-c1cccc(-c2nc3cc(CO)cc(C(C)(F)F)c3o2)c1 [FF-6, (7-(1,1-Difluoroethyl)-2-(4′-fluoro-2′-(4-methyl-4H-1,2,4-triazol-3-yl)-[1,1′-biphenyl]-3-yl)benzo[d]oxazol-5-yl)methanol] | < 0.2 µM | 1 to 10 µM | 0.2 to 1 µM
9 | Cc1cc(CN[C@@H]2CCC[C@@H]2O)cc2nc(-c3cccc(-c4ccc(F)cc4-c4nncn4C)c3)oc12 [FG-2, (1S,2R)-2-(((2-(4′-Fluoro-2′-(4-methyl-4H-1,2,4-triazol-3-yl)-[1,1′-biphenyl]-3-yl)-7-methylbenzo[d]oxazol-5-yl)methyl)amino)cyclopentan-1-ol] | < 0.2 µM | < 0.2 µM | < 0.2 µM
10 | COc1cccc2oc(-c3cccc(-c4ccc(F)cc4-c4nncn4C)c3)nc12 [FH-2, 2-(4′-Fluoro-2′-(4-methyl-4H-1,2,4-triazol-3-yl)-[1,1′-biphenyl]-3-yl)-4-methoxybenzo[d]oxazole] | 1 to 10 µM | 10 to 50 µM | 1 to 10 µM
11 | CCOCCNCc1cc(C(F)(F)F)c2oc(-c3cccc(-c4ccc(F)cc4-c4nncn4C)c3)nc2c1 [FI-2, 2-Ethoxy-N-((2-(4′-fluoro-2′-(4-methyl-4H-1,2,4-triazol-3-yl)-[1,1′-biphenyl]-3-yl)-7-(trifluoromethyl)benzo[d]oxazol-5-yl)methyl)ethan-1-amine] | < 0.2 µM | < 0.2 µM | < 0.2 µM
12 | Cn1cnnc1-c1cc(F)ccc1-c1cccc(-c2nc3cc(CN[C@@H]4CCC[C@@H]4O)cc(C(C)(F)F)c3o2)c1 [FJ-2, (1S,2R)-2-(((7-(1,1-Difluoroethyl)-2-(4′-fluoro-2′-(4-methyl-4H-1,2,4-triazol-3-yl)-[1,1′-biphenyl]-3-yl)benzo[d]oxazol-5-yl)methyl)amino)cyclopentan-1-ol] | < 0.2 µM | < 0.2 µM | < 0.2 µM
13 | CCCNCc1cc(C(F)(F)F)c2oc(-c3cccc(-c4ccc(F)cc4-c4nncn4C)c3)nc2c1 [FL-2, N-((2-(4′-Fluoro-2′-(4-methyl-4H-1,2,4-triazol-3-yl)-[1,1′-biphenyl]-3-yl)-7-(trifluoromethyl)benzo[d]oxazol-5-yl)methyl)propan-1-amine] | < 0.2 µM | < 0.2 µM | < 0.2 µM
14 | Cn1cnnc1-c1cc(F)ccc1-c1cccc(-c2nc3cc(CNC4CC5(CCC5)C4)cc(C(F)(F)F)c3o2)c1 [FM-2, N-((2-(4′-Fluoro-2′-(4-methyl-4H-1,2,4-triazol-3-yl)-[1,1′-biphenyl]-3-yl)-7-(trifluoromethyl)benzo[d]oxazol-5-yl)methyl)spiro[3.3]heptan-2-amine] | < 0.2 µM | < 0.2 µM | < 0.2 µM
15 | COc1cc(CNCC2CCCC2)cc2nc(-c3cccc(-c4ccc(F)cc4-c4nncn4C)c3)oc12 [FN-1, 1-Cyclopentyl-N-((2-(4′-fluoro-2′-(4-methyl-4H-1,2,4-triazol-3-yl)-[1,1′-biphenyl]-3-yl)-7-methoxybenzo[d]oxazol-5-yl)methyl)methanamine] | < 0.2 µM | < 0.2 µM | < 0.2 µM
16 | CC(C)CCNCc1cc(C(F)(F)F)c2oc(-c3cccc(-c4ccc(F)cc4-c4nncn4C)c3)nc2c1 [FO-2, N-((2-(4′-Fluoro-2′-(4-methyl-4H-1,2,4-triazol-3-yl)-[1,1′-biphenyl]-3-yl)-7-(trifluoromethyl)benzo[d]oxazol-5-yl)methyl)-3-methylbutan-1-amine] | < 0.2 µM | < 0.2 µM | < 0.2 µM
17 | COc1cc(CN[C@@H]2CCC[C@@H]2OC)cc2nc(-c3cccc(-c4ccc(F)cc4-c4nncn4C)c3)oc12 [FQ-1, (1R,2S)—N-((2-(4′-Fluoro-2′-(4-methyl-4H-1,2,4-triazol-3-yl)-[1,1′-biphenyl]-3-yl)-7-methoxybenzo[d]oxazol-5-yl)methyl)-2-methoxycyclopentan-1-amine] | 0.2 to 1 µM | 1 to 10 µM | 0.2 to 1 µM
18 | COc1cc(CNC[C@H]2CCCO2)cc2nc(-c3cccc(-c4ccc(F)cc4-c4nncn4C)c3)oc12 [FR-1, (R)-1-(2-(4′-Fluoro-2′-(4-methyl-4H-1,2,4-triazol-3-yl)-[1,1′-biphenyl]-3-yl)-7-methoxybenzo[d]oxazol-5-yl)-N-((tetrahydrofuran-2-yl)methyl)methanamine] | < 0.2 µM | 0.2 to 1 µM | 0.2 to 1 µM
19 | COc1cc(CNC[C@@H]2CCCO2)cc2nc(-c3cccc(-c4ccc(F)cc4-c4nncn4C)c3)oc12 [FS-2, (S)-1-(2-(4′-Fluoro-2′-(4-methyl-4H-1,2,4-triazol-3-yl)-[1,1′-biphenyl]-3-yl)-7-methoxybenzo[d]oxazol-5-yl)-N-((tetrahydrofuran-2-yl)methyl)methanamine] | < 0.2 µM | < 0.2 µM | < 0.2 µM
20 | Cn1cnnc1-c1cc(F)ccc1-c1cccc(-c2nc3cc(CNCC4CCC4)cc(C4CC4)c3o2)c1 [FT-1, 1-Cyclobutyl-N-((7-cyclopropyl-2-(4′-fluoro-2′-(4-methyl-4H-1,2,4-triazol-3-yl)-[1,1′-biphenyl]-3-yl)benzo[d]oxazol-5-yl)methyl)methanamine] | < 0.2 µM | < 0.2 µM | < 0.2 µM
21 | COc1cc(CNCC2CC2)cc2nc(-c3cccc(-c4ccc(F)cc4-c4nncn4C)c3)oc12 [FU-1, 1-Cyclopropyl-N-((2-(4′-fluoro-2′-(4-methyl-4H-1,2,4-triazol-3-yl)-[1,1′-biphenyl]-3-yl)-7-methoxybenzo[d]oxazol-5-yl)methyl)methanamine] | < 0.2 µM | 0.2 to 1 µM | < 0.2 µM
22 | CN(Cc1cc(C(F)(F)F)c2oc(-c3cccc(-c4ccc(F)cc4-c4nncn4C)c3)nc2c1)[C@@H]1CCC[C@@H]1O [FW-3, (1S,2R)-2-(((2-(4′-Fluoro-2′-(4-methyl-4H-1,2,4-triazol-3-yl)-[1,1′-biphenyl]-3-yl)-7-(trifluoromethyl)benzo[d]oxazol-5-yl)methyl)(methyl)amino)cyclopentan-1-ol] | < 0.2 µM | < 0.2 µM | < 0.2 µM
23 | CC(C)CNCc1cc(C(F)(F)F)c2oc(-c3cccc(-c4ccc(F)cc4-c4nncn4C)c3)nc2c1 [FX-2, N-((2-(4′-Fluoro-2′-(4-methyl-4H-1,2,4-triazol-3-yl)-[1,1′-biphenyl]-3-yl)-7-(trifluoromethyl)benzo[d]oxazol-5-yl)methyl)-2-methylpropan-1-amine] | < 0.2 µM | < 0.2 µM | < 0.2 µM
